The values that follow come from patent publication US7048907B2, “Synthesis, compositions and methods for the measurement of the concentration of stable-isotope labeled compounds in life forms and life form excretory products” (BioPhysics Assay Laboratory, Inc., priority 2001, dated 2006).

For data set [1] the following is noted: in vivo; cited from earlier work.
Data set [2] in a line: Assay of chelate on carboxymethyl (CM) Sephadex column (chelate formation, charge). The class given is physicochemical. The settings on record: for umol Gd: atomic absorption. On the procedure: Preparation of carboxymethyl sephadex column. To two 10 ml plastic pipets cut off at the 3 ml mark and plugged with glass wool at the bottom add enough slurry to form a 2 ml volume of the CM sephadex. Wash the packed resin with 6 ml of 1 M Tris buffer pH 7.5, and 6 ml of 0.01M Tris buffer pH 7.5. […] Collect the eluants of fractions as follows. Fraction 1.3 ml of 0.01 M Tris buffer pH 7.5 and allow to drain into column. Fraction 2.1 ml of sample (gadolinium-DTPA or gadolinium chloride) and allow to drain into column. Apply 3 ml of 0.01 M Tris buffer pH 7.5 and allow to drain into column. Fraction 3.3 ml of 0.01M Tris buffer pH 7.5 and allow to drain into column. Dry all fractions at 70° C. for 76 hours, dissolve in 1 ml of 1 mM HCl and assay by atomic absorption.
(§1) Preparation of carboxymethyl Sephadex column. To two 10 ml plastic pipets which had been cut off at the 3 ml mark and plugged with glass wool at the bottom, enough slurry was added to form a 2 ml volume of the CM Sephadex. The packed resin was wash with 6 ml of 1 M Tris buffer pH 7.5, and 6 ml of 0.01M Tris buffer pH 7.5. […] Fractions were applied as follows. Fraction 1. Three ml of 0.01 M Tris buffer pH 7.5 and allow to drain into column. Fraction 2. One ml of sample (samarium-DTPA or samarium chloride) and allow to drain into column. Apply 3 ml of 0.01 M Tris buffer pH 7.5 and allow to drain into column. Fraction 3. Three ml of 0.01M Tris buffer pH 7.5 and allow to drain into column. Collect the eluant of fractions 1 through 3. Fraction 4. Column and contents.
as §1, with “were” for “had been”, “washed” for “wash”, “(lanthanum-DTPA” for “(samarium-DTPA”, “lanthanum” for “samarium”
as §1, with “were” for “had been”, “washed” for “wash”, “(Europium-DTPA” for “(samarium-DTPA”, “Europium” for “samarium”
Preparation of carboxymethyl sephadex column. To a 10 ml plastic pipet cut off at the 3 ml mark and plugged with glass wool at the bottom, add enough slurry to form a 2 ml volume of the CM sephadex. Wash the packed resin with 6 ml of 1 M Tris buffer pH 7.5, and 6 ml of 0.01M Tris buffer pH 7.5. […] Apply fractions as follows. Fraction 1. One ml of sample A and allow to drain into column.

The conditions of data set [3]: demonstrated by properties of the marketed pharmaceutical product; cited from earlier work.
The conditions of data set [4]: male, New Zealand White, rabbit, in vivo.
Data set [5] is described as follows: Stability of chelates in rat serum (CM-Sephadex assay, serum binding). The conditions noted are these: 24 hours in rat serum at room temperature.
Where [6] appears, read: Fraction 1: 3 ml 0.01M Tris pH 7.5 before sample.
[7] abbreviates: Fraction 2: 1 ml sample then 3 ml 0.01M Tris pH 7.5 (eluate).
Where [8] appears, read: Fraction 3: further 3 ml 0.01M Tris pH 7.5.
Setting [9] is: Fraction 1: 0.2 ml sample then 2 ml 0.01M Tris pH 7.5 (eluate).
Setting [10] is: Fraction 2: 3 ml 0.01M Tris pH 7.5.
[11] abbreviates: Fraction 3: column and contents (retained).

SMILES strings stand for the structures. Where two headings read alike, the source gives them in different places.

As to `O=C([O-])C(NCCNC(C(=O)[O-])c1ccccc1[O-])c1ccccc1[O-].[Fe+3]` (centres unmarked) [FE-EHPG], in data set [1], the uptake into liver is given as 6 % of an administered dose.
`O=C([O-])CN1CCN(CC(=O)[O-])CCN(CC(=O)O)CCN(CC(=O)[O-])CC1.[Gd+3]` [Gd-DOTA, Gd-(1,4,7,10-tetraazacyclododecane-1,4,7,10-tetraacetic acid), reference compound]: the “% eluted from the CM-Sephadex column” value in data set [2] came to 100%. For the same molecule, the “% of total” value is reported as 100 % of total in data set [2] (DOTA chelates, Fraction 1: 1 ml sample diluted 1:10 then 3 ml 0.01M Tris pH 7.5 (eluate)) and 0 % of total in data set [2] (DOTA chelates, Fraction 2: further 3 ml 0.01M Tris pH 7.5). In addition, the “umol Gd” value in data set [2] (Fraction 1: 1 ml sample diluted 1:10 then 3 ml 0.01M Tris pH 7.5 (eluate)) came to 0.1 µmol; in data set [2] (Fraction 2: further 3 ml 0.01M Tris pH 7.5) it was 0 µmol. In addition, in data set [2] (room temperature, Tris pH 7.5), the “time within which the chelate forms” value was at most 5 min. The “stability to autoclaving” value in data set [3] was “stable to autoclaving”.
`CC(=O)N(CC(O)CO)c1c(I)c(C(=O)NCC(O)CO)c(I)c(C(=O)NCC(O)CO)c1I` (centres unmarked) [Iohexol] showed a GFR in data set [4] of 4.8 mL/min/kg. Besides, the serum concentration in data set [4] (5 min) came to 124.4 µg/mL; in data set [4] (10 min), 109.4 µg/mL; in data set [4] (15 min) it was 86.6 µg/mL; in data set [4] (20 min) it was 88.85 µg/mL; in data set [4] (30 min), 67.69 µg/mL; in data set [4] (45 min) it was 47.02 µg/mL. The serum concentration worked out at 48.94 µg/mL in data set [4] (60 min), 31.74 µg/mL in data set [4] (96 min) and 23.65 µg/mL in data set [4] (120 min). Moreover, the serum iodine signal in data set [4] (5 min) was found to be 5166.1 dpm/ul; in data set [4] (10 min), 4541.7 dpm/ul; in data set [4] (15 min) it was 3595.7 dpm/ul; in data set [4] (20 min) it was 3689.4 dpm/ul; in data set [4] (30 min), 2810.5 dpm/ul; in data set [4] (45 min), 1952.3 dpm/ul. Moreover, the serum iodine signal is listed as 2032.3 dpm/ul in data set [4] (60 min), 1317.8 dpm/ul in data set [4] (96 min) and 982.0 dpm/ul in data set [4] (120 min).
`[Cl][Sm]([Cl])[Cl]` [Samarium chloride, reference compound]: in data set [2], the “% of unchelated ion retained on the column” value was found to be 100%. In addition, the “% of total” value in data set [2] (setting [6]) is given as 0 % of total; in data set [2] (setting [7]), 0 % of total; in data set [2] (setting [8]), 0 % of total; in data set [2] (Fraction 4: column and contents (retained)) it was 100 % of total; in data set [5] (setting [9]), 48 % of total; in data set [5] (setting [10]), 3 % of total. Also, the “% of total” value in data set [5] (setting [11]) is given as 49 % of total. Also, the dpm stood at 0 dpm in data set [2] (setting [6]); 0 dpm in data set [2] (setting [7]); 0 dpm in data set [2] (setting [8]); 104992 dpm in data set [5] (setting [9]); 5702 dpm in data set [5] (setting [10]); 108299 dpm in data set [5] (setting [11]).
